Source: US12240867B2, “Arginase inhibitors and methods of use” (Merck Sharp & Dohme LLC, priority 2018, dated 2025)
Like-named read-outs stand apart in the source and are kept apart here.

How the values were obtained:
Arginase = target: T1, Arginase (Homo sapiens, UniProt P05089); assay: Arginase Thioornithine Generating Assay (TOGA); assay type: biochemical
T1 sequence (P05089 1-322): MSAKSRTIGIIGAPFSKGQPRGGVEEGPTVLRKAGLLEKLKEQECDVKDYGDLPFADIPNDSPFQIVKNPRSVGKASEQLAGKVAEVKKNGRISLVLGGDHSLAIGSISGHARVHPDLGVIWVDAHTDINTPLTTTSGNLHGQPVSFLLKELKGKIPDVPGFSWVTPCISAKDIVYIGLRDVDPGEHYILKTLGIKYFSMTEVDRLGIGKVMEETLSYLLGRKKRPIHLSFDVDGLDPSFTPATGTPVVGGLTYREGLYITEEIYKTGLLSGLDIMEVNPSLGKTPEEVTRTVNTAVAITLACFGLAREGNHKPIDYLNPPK
Protocol: Arginase Thioornithine Generating Assay (TOGA)
Compounds were serially diluted in ten 3-fold steps in DMSO starting from 10 mM DMSO stocks. Compound dilutions or DMSO alone were then dispensed from the dilution plate into a Greiner black 384-well assay plate (catalog #781086) using an Echo 555 acoustic liquid handler (Labcyte).
Arginase protein was recombinantly expressed in Escherichia coli. Purified protein was then diluted in assay buffer (50 mM Tris pH 7.5, 50 mM NaCl, 1 mM manganese chloride, 0.0500 bovine serum albumin to obtain a final Arginase concentration of 1.88 nM. Arginase solution ([…])) or buffer alone (20 μL) were dispensed to wells of the assay plate using a BioRAPTR liquid dispenser (Beckman Coulter). Assay plates containing compound and arginase enzyme were incubated at room temperature for 30 minutes. Afterwards, 5 µL of 2.5 mM thioarginine (Cayman Chemicals) in assay buffer were added to each well of the assay plate using a BioRAPTR liquid dispenser. Plates were incubated at room temperature for 60 minutes and reactions were quenched by addition of 15 μL of 200 uM 7-Diethylamine-3-(4-maleimidophenyl)-4-methyl coumarin (Sigma Chemical) in 70% ethanol. Plates were briefly shaken to mix and the fluorescence was measured in an Spectramax plate reader (Molecular Devices) with a 410 nm excitation wavelength and an 490 nm emission wavelength.
Potencies were calculated by […] least squares fit to the four parameter logistic IC50 equation.

[1] = system: experimental autoimmune encephalomyelitis; details: experimental autoimmune encephalomyelitis animal model; cited from earlier work
penile corpus cavernosum = details: rabbit and human penile corpus cavernosum; cited from earlier work
[2] = system: corpus cavernosum of the diabetic man; details: ex vivo; cited from earlier work
live male rabbits = details: cited from earlier work
allergic asthma model = details: nebulizer treatment of guinea pigs; cited from earlier work
live female rabbits = details: cited from earlier work
[3] = system: opossum internal anal sphincter muscle; details: cited from earlier work
[4] = Top Dose 10000 nM, read-out: Percent Inhibition at Top Dose
[5] = read-out: Percent Inhibition at Top Dose, Top Dose 10000 nM

Structure (SMILES): O=C(O)[C@]12CNC[C@@]1(CCCB(O)O)CN2 [Example 11, (1S,5R)-1-(3-boronopropyl)-3,6-diazabicyclo[3.2.0]heptane-5-carboxylic acid]
- inhibition at 10 µM (Arginase; [4]): 99.5%

Structure (SMILES): N[C@@H](CO)C(=O)N1C[C@@]2(CCCB(O)O)CCN[C@@]2(C(=O)O)C1 [Example 9, (3aR,6aR)-5-(L-seryl)-3a-(3-boronopropyl)hexahydropyrrolo[3,4-b]pyrrole-6a(1H)-carboxylic acid]
- inhibition at 10 µM (Arginase; [5]): 97.3%

Structure (SMILES): NCC(=O)N1C[C@@]2(CCCB(O)O)CCN[C@@]2(C(=O)O)C1 [Example 3, (3aR,6aR)-3a-(3-boronopropyl)-5-glycylhexahydropyrrolo[3,4-b]pyrrole-6a(H)-carboxylic acid]
- inhibition at 10 µM (Arginase; [5]): 89.5%

Structure (SMILES): C[C@H](N)C(=O)N1C[C@@]2(CCCB3O[C@@H]4C[C@@H]5C[C@@H](C5(C)C)[C@]4(C)O3)CCN[C@@]2(C(=O)O)C1 [Example 18, (3aR,6aR)-5-(L-alanyl)-3a-(3-((3aS,4S,6S,7aR)-3a,5,5-trimethylhexahydro-4,6-methanobenzo[d][1,3,2]dioxaborol-2-yl)propyl)hexahydropyrrolo[3,4-b]pyrrole-6a(1H)-carboxylic acid]
- inhibition at 10 µM (Arginase; [4]): 97.9%

Structure (SMILES): O=C(O)C12CNCC1(CCCB(O)O)CCN2 (racemic) [Example 6, racemic 3a-(3-boronopropyl)hexahydropyrrolo[3,4-b]pyrrole-6a(H)-carboxylic acid]
- inhibition at 10 µM (Arginase; [4]): 91.9%

Structure (SMILES): CC(C)[C@H](N)C(=O)N1C[C@@]2(CCCB(O)O)CCN[C@@]2(C(=O)O)C1 [Example 8, (3aR,6aR)-5-(L-valyl)-3a-(3-boronopropyl)hexahydropyrrolo[3,4-b]pyrrole-6a(H)-carboxylic acid]
- inhibition at 10 µM (Arginase; [4]): 99%

Structure (SMILES): O=C([C@@H]1CCCN1)N1C[C@@]2(CCCB(O)O)CCN[C@@]2(C(=O)O)C1 [Example 10, (3aR,6aR)-5-(L-prolyl)-3a-(3-boronopropyl)hexahydropyrrolo[3,4-b]pyrrole-6a(1H)-carboxylic acid]
- inhibition at 10 µM (Arginase; [5]): 96.6%

Structure (SMILES): C[C@H](N)C(=O)N1C[C@@]2(CCCB(O)O)CCN[C@@]2(C(=O)O)C1 [Example 1, (3aR,6aR)-5-(L-alanyl)-3a-(3-boronopropyl)hexahydropyrrolo[3,4-b]pyrrole-6a(H)-carboxylic acid]
- inhibition at 10 µM (Arginase; [5]): 99.7%

Structure (SMILES): CC(C)C[C@H](N)C(=O)N1C[C@@]2(CCCB(O)O)CCN[C@@]2(C(=O)O)C1 [Example 15]
- inhibition at 10 µM (Arginase; [4]): 96.7%

Structure (SMILES): O=C(O)[C@@]12CNC[C@]1(CCCB(O)O)CCN2 [Example 5, (3aS,6aS)-3a-(3-boronopropyl)hexahydropyrrolo[3,4-b]pyrrole-6a(H)-carboxylic acid]
- inhibition at 10 µM (Arginase; [4]): 93%

Structure (SMILES): CSCC[C@H](N)C(=O)N1C[C@@]2(CCCB(O)O)CCN[C@@]2(C(=O)O)C1 [Example 13]
- inhibition at 10 µM (Arginase; [4]): 102%

Structure (SMILES): CC(C)(C)[C@H](N)C(=O)N1C[C@@]2(CCCB(O)O)CCN[C@@]2(C(=O)O)C1 [Example 14]
- inhibition at 10 µM (Arginase; [4]): 102%

Structure (SMILES): NC[C@@H]1NC[C@]2(C(=O)O)NCC[C@]12CCCB(O)O [Example 12, (3aR,4R,6aR)-4-(aminomethyl)-3a-(3-boronopropyl)hexahydropyrrolo[3,4-b]pyrrole-6a(1H)-carboxylic acid]
- inhibition at 10 µM (Arginase; [5]): 100%

Structure (SMILES): CC(C)(N)C(=O)N1C[C@@]2(CCCB(O)O)CCN[C@@]2(C(=O)O)C1 [Example 16]
- inhibition at 10 µM (Arginase; [4]): 97.3%

Structure (SMILES): N[C@@H](CCCCB(O)O)C(=O)O [ABH, (S)-2-amino-6-boronohexanoic acid]
- disease score [1]: improves the disease score
- nitric oxide-dependent relaxation of corpus cavernosum tissue (penile corpus cavernosum): enhances the nitric oxide-dependent relaxation of this tissue
- nitric oxide biosynthesis [2]: restores nitric oxide biosynthesis
- erectile response (live male rabbits): enhances the erectile response
- airway hyperresponsiveness (allergic asthma model): prevents airway hyperresponsiveness
- engorgement response in the genitalia (live female rabbits): enhances the engorgement response
- relaxation of internal anal sphincter muscle [3]: relax this muscle

Structure (SMILES): COC[C@H](N)C(=O)N1C[C@@]2(CCCB(O)O)CCN[C@@]2(C(=O)O)C1 [Example 17]
- inhibition at 10 µM (Arginase; [4]): 97.8%

Structure (SMILES): CN1CC2(CCCB(O)O)CCNC2(C(=O)O)C1 (racemic) [Example 7, Racemic 3a-(3-boronopropyl)-5-methylhexahydropyrrolo[3,4-b]pyrrole-6a(1H)-carboxylic acid]
- inhibition at 10 µM (Arginase; [4]): 85.1%

Structure (SMILES): O=C(O)[C@]12CNC[C@@]1(CCCB(O)O)CCN2 [Example 4, (3aR,6aR)-3a-(3-boronopropyl)hexahydropyrrolo[3,4-b]pyrrole-6a(1H)-carboxylic acid]
- inhibition at 10 µM (Arginase; [4]): 98.2%
- IC50 (Arginase; recombinant arginase 1.88 nM, thioarginine substrate, fluorescence readout): 46 nM
